What all share (type): biochemical
For one assay, the target named is T1, PARP3 (Homo sapiens, UniProt Q9Y6F1).
T1 sequence (Q9Y6F1 1-533): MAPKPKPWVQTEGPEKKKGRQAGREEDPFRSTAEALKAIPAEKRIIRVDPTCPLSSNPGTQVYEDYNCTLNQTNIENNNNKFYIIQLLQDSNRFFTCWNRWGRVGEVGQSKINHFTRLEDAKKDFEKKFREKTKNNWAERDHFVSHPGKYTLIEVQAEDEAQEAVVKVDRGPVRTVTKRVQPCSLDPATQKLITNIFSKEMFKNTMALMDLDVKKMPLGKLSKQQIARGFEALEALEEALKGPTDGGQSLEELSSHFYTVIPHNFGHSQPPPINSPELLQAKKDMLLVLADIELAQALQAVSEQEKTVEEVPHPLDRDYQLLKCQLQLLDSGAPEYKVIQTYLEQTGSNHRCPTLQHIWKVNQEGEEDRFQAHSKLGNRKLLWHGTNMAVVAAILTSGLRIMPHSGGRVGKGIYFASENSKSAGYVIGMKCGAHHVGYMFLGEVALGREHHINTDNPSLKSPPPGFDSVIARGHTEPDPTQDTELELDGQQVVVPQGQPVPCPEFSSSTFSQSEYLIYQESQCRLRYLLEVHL
The experiment in a line: PARP-isoform screening, Chemiluminescent Activity Assay Kit. As to conditions: Figure 5.

The next assay concerns the target PARP1 (Homo sapiens, UniProt P09874). The experiment in a line: BPS PARP1 Chemiluminescent Activity Assay Kit.
Another assay addresses PARP14 (Homo sapiens, UniProt Q460N5). Nature of the assay: PARP-isoform screening, Chemiluminescent Activity Assay Kit. The note with it: Figure 5.
For the next assay, the target named is T2, PARP8 (Homo sapiens, UniProt Q8N3A8).
T2 sequence (Q8N3A8 1-854): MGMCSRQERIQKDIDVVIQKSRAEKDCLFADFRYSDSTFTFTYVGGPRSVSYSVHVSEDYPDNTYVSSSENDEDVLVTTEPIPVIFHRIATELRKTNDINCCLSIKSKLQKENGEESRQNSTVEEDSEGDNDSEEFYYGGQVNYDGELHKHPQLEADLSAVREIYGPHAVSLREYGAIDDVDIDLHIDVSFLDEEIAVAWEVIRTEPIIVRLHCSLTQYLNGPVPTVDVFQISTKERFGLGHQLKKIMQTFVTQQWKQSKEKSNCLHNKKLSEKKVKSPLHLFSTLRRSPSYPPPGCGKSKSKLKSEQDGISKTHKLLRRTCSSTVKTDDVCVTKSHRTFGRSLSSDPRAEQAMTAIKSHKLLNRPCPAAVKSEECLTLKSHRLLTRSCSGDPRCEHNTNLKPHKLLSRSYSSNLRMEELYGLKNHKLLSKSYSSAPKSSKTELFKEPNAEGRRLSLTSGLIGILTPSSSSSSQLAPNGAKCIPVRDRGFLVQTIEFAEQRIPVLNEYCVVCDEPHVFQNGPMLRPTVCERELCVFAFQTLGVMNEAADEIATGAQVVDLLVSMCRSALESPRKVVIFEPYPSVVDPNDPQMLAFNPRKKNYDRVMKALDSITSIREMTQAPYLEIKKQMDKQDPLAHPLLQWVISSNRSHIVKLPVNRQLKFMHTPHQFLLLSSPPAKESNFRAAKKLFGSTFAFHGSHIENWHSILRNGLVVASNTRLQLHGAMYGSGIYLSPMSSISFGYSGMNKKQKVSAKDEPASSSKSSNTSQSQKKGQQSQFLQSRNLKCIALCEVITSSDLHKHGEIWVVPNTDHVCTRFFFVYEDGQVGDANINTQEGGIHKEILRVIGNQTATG
The description is as above. As to conditions: Figure 5.

For the next assay, the target named is T3, TNKS1 (PARP5A) (Homo sapiens, UniProt O95271).
T3 sequence (O95271 1-1327): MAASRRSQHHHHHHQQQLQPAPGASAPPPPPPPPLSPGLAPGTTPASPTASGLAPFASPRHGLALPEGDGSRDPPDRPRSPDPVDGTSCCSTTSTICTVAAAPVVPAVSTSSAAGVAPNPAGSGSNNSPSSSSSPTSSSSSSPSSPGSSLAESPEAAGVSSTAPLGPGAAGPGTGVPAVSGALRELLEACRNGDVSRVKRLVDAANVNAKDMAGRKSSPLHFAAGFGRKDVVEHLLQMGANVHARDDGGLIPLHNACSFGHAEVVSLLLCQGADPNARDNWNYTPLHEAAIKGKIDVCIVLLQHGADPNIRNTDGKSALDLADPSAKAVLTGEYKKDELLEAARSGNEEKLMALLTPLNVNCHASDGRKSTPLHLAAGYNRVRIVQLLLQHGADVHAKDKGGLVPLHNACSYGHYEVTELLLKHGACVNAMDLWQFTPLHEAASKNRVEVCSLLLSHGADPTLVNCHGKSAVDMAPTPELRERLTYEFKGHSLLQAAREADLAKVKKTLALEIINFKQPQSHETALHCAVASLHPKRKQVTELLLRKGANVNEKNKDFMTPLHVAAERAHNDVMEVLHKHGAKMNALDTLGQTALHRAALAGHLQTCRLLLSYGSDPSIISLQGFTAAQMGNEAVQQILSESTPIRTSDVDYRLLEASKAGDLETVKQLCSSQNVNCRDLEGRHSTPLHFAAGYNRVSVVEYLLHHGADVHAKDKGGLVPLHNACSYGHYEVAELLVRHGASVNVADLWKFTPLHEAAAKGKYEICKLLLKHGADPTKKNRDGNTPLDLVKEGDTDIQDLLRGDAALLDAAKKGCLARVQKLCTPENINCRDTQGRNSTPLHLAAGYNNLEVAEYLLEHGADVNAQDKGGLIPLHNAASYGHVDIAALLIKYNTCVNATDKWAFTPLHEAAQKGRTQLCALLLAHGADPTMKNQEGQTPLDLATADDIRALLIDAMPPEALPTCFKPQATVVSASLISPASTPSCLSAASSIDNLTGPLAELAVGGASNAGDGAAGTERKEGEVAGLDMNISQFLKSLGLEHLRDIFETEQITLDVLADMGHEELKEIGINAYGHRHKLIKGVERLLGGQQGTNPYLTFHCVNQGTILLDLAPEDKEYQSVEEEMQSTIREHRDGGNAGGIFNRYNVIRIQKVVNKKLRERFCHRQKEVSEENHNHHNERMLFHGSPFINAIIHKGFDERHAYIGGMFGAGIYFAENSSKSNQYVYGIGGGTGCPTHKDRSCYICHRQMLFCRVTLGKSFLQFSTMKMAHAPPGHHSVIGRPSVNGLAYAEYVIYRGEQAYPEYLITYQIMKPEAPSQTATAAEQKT
The assay is described as above. The note with it: Figure 5.

The text below walks through data of PMC8142146 (Bioorganic chemistry, 2020).

Sequence of PARP1 (P09874 whole entry, canonical isoform): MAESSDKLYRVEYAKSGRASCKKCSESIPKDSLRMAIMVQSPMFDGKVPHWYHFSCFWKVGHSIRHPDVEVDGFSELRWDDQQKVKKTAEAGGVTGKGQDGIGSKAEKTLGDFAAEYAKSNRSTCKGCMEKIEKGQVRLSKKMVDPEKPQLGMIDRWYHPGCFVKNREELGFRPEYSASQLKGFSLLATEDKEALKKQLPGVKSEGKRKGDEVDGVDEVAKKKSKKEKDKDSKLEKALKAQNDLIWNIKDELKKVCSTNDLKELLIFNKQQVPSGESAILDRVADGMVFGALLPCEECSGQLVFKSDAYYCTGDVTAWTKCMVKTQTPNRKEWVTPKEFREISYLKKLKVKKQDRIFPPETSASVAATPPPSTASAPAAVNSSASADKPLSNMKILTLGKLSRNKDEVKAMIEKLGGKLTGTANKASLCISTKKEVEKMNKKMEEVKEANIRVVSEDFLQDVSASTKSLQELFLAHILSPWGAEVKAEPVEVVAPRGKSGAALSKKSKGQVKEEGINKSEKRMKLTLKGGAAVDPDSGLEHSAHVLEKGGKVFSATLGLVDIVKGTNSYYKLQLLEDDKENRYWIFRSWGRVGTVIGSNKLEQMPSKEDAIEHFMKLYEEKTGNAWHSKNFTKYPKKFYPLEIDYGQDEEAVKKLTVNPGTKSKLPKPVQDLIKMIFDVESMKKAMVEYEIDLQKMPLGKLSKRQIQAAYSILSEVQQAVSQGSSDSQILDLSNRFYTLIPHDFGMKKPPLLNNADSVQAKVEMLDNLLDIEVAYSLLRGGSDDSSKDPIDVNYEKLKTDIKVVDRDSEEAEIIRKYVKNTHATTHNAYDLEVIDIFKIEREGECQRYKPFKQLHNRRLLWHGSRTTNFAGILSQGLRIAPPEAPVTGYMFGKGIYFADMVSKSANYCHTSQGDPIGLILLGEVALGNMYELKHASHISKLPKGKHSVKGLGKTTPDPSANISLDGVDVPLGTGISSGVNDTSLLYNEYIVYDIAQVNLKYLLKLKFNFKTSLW
Sequence of PARP14 (Q460N5 whole entry, canonical isoform): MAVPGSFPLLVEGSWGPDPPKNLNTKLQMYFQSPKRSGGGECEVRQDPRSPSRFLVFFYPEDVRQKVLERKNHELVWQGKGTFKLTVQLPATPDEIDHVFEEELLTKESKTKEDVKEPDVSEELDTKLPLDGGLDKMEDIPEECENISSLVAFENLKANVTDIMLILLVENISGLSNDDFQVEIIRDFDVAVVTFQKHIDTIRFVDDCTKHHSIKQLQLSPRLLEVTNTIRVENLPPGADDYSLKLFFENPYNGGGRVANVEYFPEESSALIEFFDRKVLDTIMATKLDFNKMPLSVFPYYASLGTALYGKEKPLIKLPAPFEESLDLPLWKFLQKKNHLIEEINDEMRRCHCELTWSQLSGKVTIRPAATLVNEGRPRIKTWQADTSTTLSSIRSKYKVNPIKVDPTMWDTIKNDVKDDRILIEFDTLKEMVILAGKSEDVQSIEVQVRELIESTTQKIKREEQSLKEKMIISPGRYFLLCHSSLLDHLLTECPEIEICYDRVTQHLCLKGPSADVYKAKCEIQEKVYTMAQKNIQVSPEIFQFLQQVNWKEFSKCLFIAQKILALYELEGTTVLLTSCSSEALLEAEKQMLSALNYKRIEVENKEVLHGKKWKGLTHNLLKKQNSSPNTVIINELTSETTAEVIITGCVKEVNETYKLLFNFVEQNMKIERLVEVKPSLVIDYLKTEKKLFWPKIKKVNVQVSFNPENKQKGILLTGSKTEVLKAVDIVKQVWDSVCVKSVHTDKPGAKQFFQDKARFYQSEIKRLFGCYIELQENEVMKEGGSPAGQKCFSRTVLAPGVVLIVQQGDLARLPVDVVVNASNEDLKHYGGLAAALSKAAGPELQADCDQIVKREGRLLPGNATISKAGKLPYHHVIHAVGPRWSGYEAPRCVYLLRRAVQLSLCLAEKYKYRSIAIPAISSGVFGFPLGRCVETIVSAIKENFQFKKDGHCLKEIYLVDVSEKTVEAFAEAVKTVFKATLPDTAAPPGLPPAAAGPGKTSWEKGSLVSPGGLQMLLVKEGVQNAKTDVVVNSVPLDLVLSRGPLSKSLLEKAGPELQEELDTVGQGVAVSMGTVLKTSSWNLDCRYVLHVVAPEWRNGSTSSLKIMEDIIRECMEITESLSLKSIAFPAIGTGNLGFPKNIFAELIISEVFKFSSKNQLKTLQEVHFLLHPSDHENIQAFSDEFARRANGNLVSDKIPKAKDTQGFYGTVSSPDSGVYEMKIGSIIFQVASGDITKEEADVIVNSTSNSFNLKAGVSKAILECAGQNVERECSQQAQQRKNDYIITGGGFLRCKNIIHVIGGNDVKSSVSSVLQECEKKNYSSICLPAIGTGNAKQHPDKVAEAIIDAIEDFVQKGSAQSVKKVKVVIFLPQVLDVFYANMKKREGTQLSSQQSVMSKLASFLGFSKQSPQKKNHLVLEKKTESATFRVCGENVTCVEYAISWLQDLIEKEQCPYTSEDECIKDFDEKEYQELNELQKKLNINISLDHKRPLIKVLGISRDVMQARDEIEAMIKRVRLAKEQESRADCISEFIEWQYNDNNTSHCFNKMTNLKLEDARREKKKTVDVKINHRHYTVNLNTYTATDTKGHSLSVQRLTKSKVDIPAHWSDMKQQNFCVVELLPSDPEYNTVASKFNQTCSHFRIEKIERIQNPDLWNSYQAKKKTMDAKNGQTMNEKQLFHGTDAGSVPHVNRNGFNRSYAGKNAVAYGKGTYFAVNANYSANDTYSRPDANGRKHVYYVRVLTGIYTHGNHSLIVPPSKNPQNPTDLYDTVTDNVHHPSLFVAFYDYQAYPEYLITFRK

As usually defined, the IC50 is the concentration that inhibits the measured activity by half. Lower therefore signals higher potency. On to `NC(=O)c1cccc2c1O/C(=C\c1ccc(O)cc1)C(=O)N2` [Compound 49, (Z)-2-(4-Hydroxybenzylidene)-3-oxo-3,4-dihydro-2H-benzo[b][1,4]oxazine-8-carboxamide], for which the PARP3 inhibition result on PARP3 is “substantially inhibited”. Moreover, the IC50 against PARP1 turned out to be 82 ± 45 nM. Also, the PARP14 inhibition result at PARP14 is listed as “did not interfere”. The PARP8 inhibition result at PARP8 is on record as “did not interfere”. Besides, the TNKS1 inhibition result on TNKS1 (PARP5A) is given as “substantially inhibited”.
